Results reported in ChEMBL document CHEMBL1255262, “Antimicrobial activity of omiganan pentahydrochloride against contemporary fungal pathogens responsible for catheter-associated infections” (2008).
Converted amounts (≈) assume the structure as drawn.

Assays:
Type in all cases: functional
Candida albicans [1] = assay: Antifungal activity against Candida albicans assessed as susceptible isolates after 48 hrs by broth microdilution
Candida tropicalis [2] = assay: Antifungal activity against Candida tropicalis assessed as susceptible isolates after 48 hrs by broth microdilution
Pichia kudriavzevii [3] = assay: Antifungal activity against Candida krusei assessed as resistant isolates after 48 hrs by broth microdilution
Pichia kudriavzevii [4] = assay: Antifungal activity against Candida krusei assessed as susceptible isolates after 48 hrs by broth microdilution
Nakaseomyces glabratus [5] = assay: Antifungal activity against Candida glabrata assessed as resistant isolates after 48 hrs by broth microdilution
Candida albicans [6] = assay: Antifungal activity against Candida albicans assessed as resistant isolates after 48 hrs by broth microdilution
Nakaseomyces glabratus [7] = assay: Antifungal activity against Candida glabrata after 48 hrs by broth microdilution
Candida tropicalis [8] = assay: Antifungal activity against Candida tropicalis assessed as resistant isolates after 48 hrs by broth microdilution
Curvularia = assay: Antifungal activity against Curvularia species after 48 hrs by broth microdilution
Candida parapsilosis [9] = assay: Antifungal activity against Candida parapsilosis assessed as susceptible isolates after 48 hrs by broth microdilution
Candida tropicalis [10] = assay: Antifungal activity against Candida tropicalis after 48 hrs by broth microdilution
Candida albicans [11] = assay: Antifungal activity against Candida albicans after 48 hrs by broth microdilution
Fusarium sp. = assay: Antifungal activity against Fusarium sp. after 48 hrs by broth microdilution
Pichia kudriavzevii [12] = assay: Antifungal activity against Candida krusei after 48 hrs by broth microdilution
Paecilomyces variotii = assay: Antifungal activity against Paecilomyces variotii after 48 hrs by broth microdilution
Penicillium sp. = assay: Antifungal activity against Penicillium sp. after 48 hrs by broth microdilution
Aspergillus sp. = assay: Antifungal activity against Aspergillus sp. after 48 hrs by broth microdilution
Talaromyces marneffei = assay: Antifungal activity against Penicillium marneffei after 48 hrs by broth microdilution
Nakaseomyces glabratus [13] = assay: Antifungal activity against Candida glabrata assessed as susceptible isolates after 48 hrs by broth microdilution
Candida parapsilosis [14] = assay: Antifungal activity against Candida parapsilosis after 48 hrs by broth microdilution
Candida parapsilosis [15] = assay: Antifungal activity against Candida parapsilosis assessed as resistant isolates after 48 hrs by broth microdilution

Compound	MIC50 (Nakaseomyces glabratus [7])	MIC90 (Nakaseomyces glabratus [7])	MIC50 (Curvularia)	MIC90 (Curvularia)	MIC50 (Candida tropicalis [10])	MIC90 (Candida tropicalis [10])	MIC50 (Candida albicans [11])	MIC90 (Candida albicans [11])	MIC50 (Fusarium sp.)	MIC90 (Fusarium sp.)	MIC50 (Pichia kudriavzevii [12])	MIC90 (Pichia kudriavzevii [12])	MIC50 (Paecilomyces variotii)	MIC90 (Paecilomyces variotii)	MIC50 (Penicillium sp.)	MIC90 (Penicillium sp.)	MIC50 (Aspergillus sp.)	MIC90 (Aspergillus sp.)	MIC50 (Talaromyces marneffei)	MIC90 (Talaromyces marneffei)	further results
C[C@@H](c1ncncc1F)[C@](O)(Cn1cncn1)c1ccc(F)cc1F [VORICONAZOLE]	0.06 µg/mL (≈ 0.172 µM)	2 µg/mL (≈ 5.73 µM)	0.25 µg/mL (≈ 0.716 µM)	2 µg/mL (≈ 5.73 µM)	0.015 µg/mL (≈ 0.0429 µM)	16 µg/mL (≈ 45.8 µM)	0.03 µg/mL (≈ 0.0859 µM)	> 16 µg/mL	0.25 µg/mL (≈ 0.716 µM)	2 µg/mL (≈ 5.73 µM)	0.25 µg/mL (≈ 0.716 µM)	0.5 µg/mL (≈ 1.43 µM)	0.25 µg/mL (≈ 0.716 µM)	2 µg/mL (≈ 5.73 µM)	0.25 µg/mL (≈ 0.716 µM)	2 µg/mL (≈ 5.73 µM)	0.25 µg/mL (≈ 0.716 µM)	0.25 µg/mL (≈ 0.716 µM)	0.25 µg/mL (≈ 0.716 µM)	2 µg/mL (≈ 5.73 µM)	Activity (Candida albicans [1]): 75%; Activity (Candida tropicalis [2]): 72.7%; Activity (Pichia kudriavzevii [3]): 0%; Activity (Pichia kudriavzevii [4]): 100%; Activity (Nakaseomyces glabratus [5]): 0%; Activity (Candida albicans [6]): 25%; Activity (Candida tropicalis [8]): 27.3%; Activity (Candida parapsilosis [9]): 100%; MIC (Candida tropicalis [10]): 0.015 µg/mL (≈ 0.0429 µM); Activity (Nakaseomyces glabratus [13]): 86.4%; MIC50 (Candida parapsilosis [14]; Lodderomyces parapsilosis): 0.015 µg/mL (≈ 0.0429 µM); MIC90 (Candida parapsilosis [14]; Lodderomyces parapsilosis): 0.12 µg/mL (≈ 0.344 µM); Activity (Candida parapsilosis [15]): 0%
NYSTATIN	8 µg/mL	8 µg/mL	8 µg/mL	16 µg/mL	8 µg/mL	8 µg/mL	8 µg/mL	8 µg/mL	8 µg/mL	16 µg/mL	8 µg/mL	8 µg/mL	8 µg/mL	16 µg/mL	8 µg/mL	16 µg/mL	16 µg/mL	16 µg/mL	8 µg/mL	16 µg/mL	MIC50 (Candida parapsilosis [14]): 8 µg/mL; MIC90 (Candida parapsilosis [14]): 8 µg/mL
Nc1nc(=O)[nH]cc1F [FLUCYTOSINE]	0.06 µg/mL (≈ 0.465 µM)	0.06 µg/mL (≈ 0.465 µM)	> 64 µg/mL	> 64 µg/mL	0.06 µg/mL (≈ 0.465 µM)	0.12 µg/mL (≈ 0.93 µM)	0.12 µg/mL (≈ 0.93 µM)	1 µg/mL (≈ 7.75 µM)	> 64 µg/mL	> 64 µg/mL	16 µg/mL (≈ 124 µM)	32 µg/mL (≈ 248 µM)	> 64 µg/mL	> 64 µg/mL	> 64 µg/mL	> 64 µg/mL	> 64 µg/mL	> 64 µg/mL	> 64 µg/mL	> 64 µg/mL	Activity (Candida albicans [1]): 100%; Activity (Candida tropicalis [2]): 100%; Activity (Pichia kudriavzevii [3]): 30%; Activity (Pichia kudriavzevii [4]): 0%; Activity (Nakaseomyces glabratus [5]): 0%; Activity (Candida albicans [6]): 0%; Activity (Candida tropicalis [8]): 0%; Activity (Candida parapsilosis [9]): 100%; MIC (Candida tropicalis [10]): 0.06 µg/mL (≈ 0.465 µM); Activity (Nakaseomyces glabratus [13]): 100%; MIC50 (Candida parapsilosis [14]; Lodderomyces parapsilosis): 0.12 µg/mL (≈ 0.93 µM); MIC90 (Candida parapsilosis [14]; Lodderomyces parapsilosis): 0.12 µg/mL (≈ 0.93 µM); Activity (Candida parapsilosis [15]): 0%
